# Experimental data from patent US7439242B2, “PPARγ modulators” (Amgen Inc., priority 1998, dated 2008).
# Biological target: T1, PPARγ (Homo sapiens, UniProt P37231)
# T1 construct: made in house
# T1 sequence (P37231 1-505): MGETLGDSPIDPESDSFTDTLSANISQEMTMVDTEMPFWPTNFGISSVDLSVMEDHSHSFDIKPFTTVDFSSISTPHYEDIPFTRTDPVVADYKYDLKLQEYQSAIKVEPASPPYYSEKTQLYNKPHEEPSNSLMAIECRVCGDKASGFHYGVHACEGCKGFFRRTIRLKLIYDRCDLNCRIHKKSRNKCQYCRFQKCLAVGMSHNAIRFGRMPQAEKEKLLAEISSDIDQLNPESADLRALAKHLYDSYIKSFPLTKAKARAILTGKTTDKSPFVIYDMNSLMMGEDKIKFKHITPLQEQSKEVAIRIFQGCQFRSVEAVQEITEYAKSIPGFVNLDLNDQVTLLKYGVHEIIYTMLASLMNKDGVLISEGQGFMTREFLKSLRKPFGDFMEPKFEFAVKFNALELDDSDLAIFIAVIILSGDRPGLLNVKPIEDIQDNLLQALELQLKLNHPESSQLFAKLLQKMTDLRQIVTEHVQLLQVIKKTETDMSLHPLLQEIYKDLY
# Experiment: PPARγ ligand binding assay utilizing [3H]-BRL 49653 as the radioligand
# Conditions: concentration of test compound required to reduce by 50% the specific binding of [3H]-BRL 49653; methods similar to Lehmann et al.
# From the text: The compounds of the present invention can be evaluated for modulation of the PPARγ receptor using assays such as those described in Jiang, et al., Nature 391:82-86 (1998), Ricote, et al., Nature 391:79-82 (1998) and Lehmann, et al., J. Biol. Chem. 270(12): 12953-12956 (1995). Alternatively, the compounds can be evaluated for their ability to displace radiolabeled BRL 49653 from a PPARγ-GST fusion protein as follows:
# PPARγ-GST fusion protein (prepared according to standard procedures), [^3H]—BRL 49653 having 50 Ci/mmol specific activity, Polyfiltronics Unifilter 350 filtration plate and glutathione-Sepharose® beads (from Pharmacia: washed twice with 10×binding buffer in which BSA and DTT can be left out).
# Binding buffer (10 mM Tris-HCl, pH 8.0, 50 mM KCl, 10 mM DTT, 0.02% BSA and 0.01% NP-40) is added in 80 microliter amounts to the wells of the filtration plate. The test compound is then added in 10 microliters of DMSO. The PPARγ-GST fusion protein and radiolabeled BRL compound are premixed in binding buffer containing 10 mM DTT and added in 10 microliter amounts to the wells of the plate to provide final concentrations of 1 μg/well of PPARγ-GST fusion protein and 10 nM [^3H]—BRL 49653 compound. The plate is incubated for 15 minutes. Glutathione-agarose bead is added in 50 μL of binding buffer, and the plate is vigorously shaken for one hour. The plate is washed four times with 200 μL/well of binding buffer (without BSA and DTT). The bottom of the plate is sealed and 200 μL/well of scintillation cocktail is added. The top of the plate is then sealed and the radioactivity is determined.
# IC50 values are defined as the concentration of test compounds required to reduce by 50% the specific binding of [^3H]-BRL 49653.
row,IC50,Structure (SMILES)
1,0.8 µM,"CCOC(=O)c1cc(NS(=O)(=O)c2c(C)cc(Cl)cc2Cl)ccc1Oc1cncc(Cl)c1 [Example 7, ethyl 5-(2,4-dichloro6-methylbenzenesulfonamido)-2-(3-chloro5-pyridyloxy)benzoate]"
2,6 µM,"CCOC(=O)c1cc(NS(=O)(=O)c2c(Cl)cccc2Cl)ccc1Oc1cncc(Cl)c1 [Example 6, ethyl 5-(2,6-dichlorobenzenesulfonamido)-2-(3-chloro-5-pyridyloxy)benzoate]"
3,0.3 µM,"CCOC(=O)c1cc(NS(=O)(=O)c2ccc(OC)c(OC)c2)ccc1Oc1cncc(Cl)c1 [Example 4, ethyl 5-(3,4-dimethoxy-benzenesulfonamido)-2-(3-chloro-5-pyridyloxy)benzoate]"
4,0.15 µM,"CCOC(=O)c1cc(NS(=O)(=O)c2cc(Br)ccc2OC)ccc1Oc1cncc(Cl)c1 [Example 3, ethyl 5-(2-methoxy-5-bromobenzenesulfonamido)-2-(3-chloro-5-pyridyloxy)benzoate]"
5,0.8 µM,"CCOC(=O)c1cc(NS(=O)(=O)c2cc([N+](=O)[O-])ccc2C)ccc1Oc1cncc(Cl)c1 [Example 5, ethyl 5-(2-methyl-5-nitrobenzenesulfonamido)-2-(3-chloro-5-pyridyloxy)benzoate]"

# Test system: not given
# Experiment: not given
# Conditions: not given
row,Structure (SMILES),melting point
1,"CCOC(=O)c1cc(S(=O)(=O)Nc2ccc(Cl)cc2Cl)ccc1Oc1cncc(Cl)c1 [Example 40, ethyl 2-(3-chloro-5-pyridyloxy)-5-(2,4-dichlorophenylaminosulfonyl)benzoic acid]",153 to 155 °C
2,"O=S(=O)(Nc1ccccc1Oc1cncc(Cl)c1)c1ccc(Cl)cc1Cl [Example 32, 1-(3-chloro-5-pyridyloxy)-2-(2,4-dichlorobenzenesulfonamido)benzene]",168 to 170 °C
3,"O=S(=O)(Nc1cc(C(F)(F)F)ccc1Oc1cncc(Cl)c1)c1ccc(Cl)cc1Cl [Example 43, 4-(3-chloro-5-pyridyloxy)-3-(2,4-dichlorobenzenesulfonamido)benzotrifluoride]",150 to 151.5 °C
4,"CCOC(=O)c1cc(NC(=O)c2ccc(Cl)cc2Cl)ccc1Oc1cncc(Cl)c1 [Example 41, ethyl 5-(2,4-dichlorobenzamido)-2-(3-chloro-5-pyridyloxy)benzoate]",125 to 127 °C

# Second part, the compound after the results:
row,melting point,Structure (SMILES)
1,120 to 122 °C,"CCOC(=O)c1cc(NS(=O)(=O)c2cccnc2)ccc1Oc1cncc(Cl)c1 [Example 25, ethyl 5-(3-pyridinesulfonamido)-2-(3-chloro-5-pyridyloxy)benzoate]"
2,133 to 135 °C,"CCOC(=O)c1cc(NS(=O)(=O)c2ccc(C(F)(F)F)cn2)ccc1Oc1cncc(Cl)c1 [Example 21, ethyl 5-(5-trifluoromethyl-2-pyridinesulfonamido)-2-(3-chloro-5-pyridyloxy)benzoate]"
3,166 to 168 °C,"CCOC(=O)c1cc(NS(=O)(=O)c2ccc(Cl)nc2)ccc1Oc1cncc(Cl)c1 [Example 24, ethyl 5-(6-chloro-3-pyridinesulfonamido)-2-(3-chloro-5-pyridyloxy)benzoate]"
